Patent US20240285596A1, “SOLID DOSAGE FORMS AND DOSING REGIMENS COMPRISING (2R,3S,4S,5R)-4-[[3-(3,4-DIFLUORO-2-METHOXY-PHENYL)-4,5-DIMETHYL-5-(TRIFLUOROMETHYL) TETRAHYDROFURAN-2-CARBONYL]AMINO]PYRIDINE-2-CARBOXAMIDE” (VERTEX PHARMACEUTICALS INCORPORATED, priority 2021, published 2024)

Tests used:
[1] = tested on: patients undergoing abdominoplasty; assay: Study in patients undergoing abdominoplasty (NCT05034952); assay type: in vivo, human
human NaV 1.8 = human NaV 1.8 (Homo sapiens, UniProt Q9Y5Y9); assay: E-VIPR assay detecting and measuring NaV inhibition properties; assay type: cell-based; details: HEK cells expressing a truncated form of human NaV 1.8; E-VIPR membrane potential readout
Description: Sodium ion channels are voltage-dependent proteins that can be activated by inducing membrane voltage changes by applying electric fields. The electrical stimulation instrument and methods of use, referred to as E-VIPR, are described in International Publication No. WO 2002/008748 A3 and C.-J. Huang et al. Characterization of voltage-gated sodium channel blockers by electrical stimulation and fluorescence detection of membrane potential, 24 Nature Biotech. 439-46 (2006), both of which are incorporated by reference in their entirety. The instrument comprises a microtiter plate handler, an optical system for exciting the coumarin dye while simultaneously recording the coumarin and oxonol emissions, a waveform generator, a current- or voltage-controlled amplifier, and parallel electrode pairs that are inserted into assay plate wells. […]
5 mM DiSBAC6(3), a voltage sensitive oxonol acceptor (CAS number 169211-44-3; 5-[3-(1,3-dihexylhexahydro-4,6-dioxo-2-thioxo-5-pyrimidinyl)-2-propen-1-ylidene]-1,3-dihexyldihydro-2-thioxo-4,6(1H,5H)-pyrimidinedione), in dry DMSO. The preparation of DiSBAC6(3) is analogous to that of DiSBAC4(3) as described in Voltage Sensing by Fluorescence Resonance Energy Transfer in Single Cells, Gonzalez, J. E. and Tsien, R. Y. (1995) Biophys. […]

[2] = tested on: subjects with pain following bunionectomy; assay: Randomized, double-blind, placebo-controlled study of efficacy and safety in subjects with pain following bunionectomy; details: for Mean SPID48: oral, NPRS 0-48 h
Description: Bunionectomy is a well-established, multi-dose, surgical, acute pain model. A randomized, double-blind study design was used to avoid observer bias and reduce symptoms or outcomes arising from the subjects' knowledge of treatment.
Male and female patients between the ages of 18 and 75 years (inclusive) with pain that is ≥4 on an 11-point Numeric Pain Rating Scale (NPRS) and is moderate or severe on the Verbal Categorical Rating Scale (VRS) after bunionectomy are included in the study.
The investigational drug was administered orally in 10 mg tablets. […] The investigational drug was administered every 12 hours (q12 h). A low, mid, and high dosing regime were tested. The first dose in the low dosing regime was 20 mg, and the subsequent doses were 10 mg g12 h. The first dose in the mid dosing regime was 60 mg, and the subsequent doses were 30 mg g12 h. The first dose in the high dosing regime was 100 mg, and the subsequent doses were 50 mg g12 h.
After a screening period, subjects receive a primary unilateral first metatarsal bunionectomy repair on Day minus one under regional anesthesia (Mayo and popliteal block). A continuous popliteal sciatic block infusion (0.2% ropivacaine) is started after surgery, and remains in place until approximately 3 AM on Day 1. After removal of the popliteal sciatic block, each subject is randomized when the subject requests the first dose of study drug for pain relief and reports pain ≥4 on the NPRS and moderate or severe pain on the VRS.
Randomization was stratified by site and baseline NPRS (<8 versus ≥8). To maintain the blind, all subjects receive the same number of capsules in a double-dummy design.
HB/APAP placebo capsules were administered every 6 hours (q6 h).
The final dose of HB/APAP was given 42 hours after the first dose.
11-point (0 to 10) Numeric Pain Rating Scale: NPRS scores are frequently used in bunionectomy studies and are recognized by the FDA as a valid pain intensity measure. On the 11-point NPRS, a score of 0 denotes no pain, and a score of 10 denotes the worst pain intensity imaginable. Subjects reported their pain on the 11-point NPRS immediately before their first dose of the study drug (baseline NPRS score) and at intervals over 48 hour period (i.e. 0.5, 1, 1.5, 2, 3, 4, 5, 6, 8, 12, 16, 20, 24, 28, 32, 36, 40, 44, and 48 hours (±5 minutes)) after the first dose of the study drug. Pain intensity is also recorded on the NPRS immediately before each administration of rescue medication. Pain intensity scores that are collected within 4 hours after a dose of rescue medication are deemed missing, and the missing values are imputed as the intensity recorded immediately before the administration of rescue medication.
SPID-48 is the sum of the pain intensity difference (PID) over the 48 hour time period. A pain intensity score of 0 (no pain) to 10 (worse possible pain) is obtained before starting the study and throughout the 48 time period. The pain score at each assessment time is subtracted from the baseline pain score to provide the total sum score or SPID-48. A higher SPID-48 is better and indicates a reduction in pain intensity compared to the baseline score.
4-point Verbal Categorical Rating Scale: Subjects report their pain on the 4-point VRS (none, mild, moderate, or severe) immediately before their first dose of the study drug (baseline VRS).
Safety evaluations include adverse events, clinical laboratory assessments, clinical evaluation of vital signs, electrocardiograms, and physical examinations.

[3] = High-dose: 100 mg first dose/50 mg every 12 hours, n = 60
[4] = Low-dose: 20 mg first dose/10 mg every 12 hours, n = 33
[5] = Mid-dose: 60 mg first dose/30 mg every 12 hours, n = 62

Chain of human NaV 1.8 (Q9Y5Y9 126-1722 limits assumed): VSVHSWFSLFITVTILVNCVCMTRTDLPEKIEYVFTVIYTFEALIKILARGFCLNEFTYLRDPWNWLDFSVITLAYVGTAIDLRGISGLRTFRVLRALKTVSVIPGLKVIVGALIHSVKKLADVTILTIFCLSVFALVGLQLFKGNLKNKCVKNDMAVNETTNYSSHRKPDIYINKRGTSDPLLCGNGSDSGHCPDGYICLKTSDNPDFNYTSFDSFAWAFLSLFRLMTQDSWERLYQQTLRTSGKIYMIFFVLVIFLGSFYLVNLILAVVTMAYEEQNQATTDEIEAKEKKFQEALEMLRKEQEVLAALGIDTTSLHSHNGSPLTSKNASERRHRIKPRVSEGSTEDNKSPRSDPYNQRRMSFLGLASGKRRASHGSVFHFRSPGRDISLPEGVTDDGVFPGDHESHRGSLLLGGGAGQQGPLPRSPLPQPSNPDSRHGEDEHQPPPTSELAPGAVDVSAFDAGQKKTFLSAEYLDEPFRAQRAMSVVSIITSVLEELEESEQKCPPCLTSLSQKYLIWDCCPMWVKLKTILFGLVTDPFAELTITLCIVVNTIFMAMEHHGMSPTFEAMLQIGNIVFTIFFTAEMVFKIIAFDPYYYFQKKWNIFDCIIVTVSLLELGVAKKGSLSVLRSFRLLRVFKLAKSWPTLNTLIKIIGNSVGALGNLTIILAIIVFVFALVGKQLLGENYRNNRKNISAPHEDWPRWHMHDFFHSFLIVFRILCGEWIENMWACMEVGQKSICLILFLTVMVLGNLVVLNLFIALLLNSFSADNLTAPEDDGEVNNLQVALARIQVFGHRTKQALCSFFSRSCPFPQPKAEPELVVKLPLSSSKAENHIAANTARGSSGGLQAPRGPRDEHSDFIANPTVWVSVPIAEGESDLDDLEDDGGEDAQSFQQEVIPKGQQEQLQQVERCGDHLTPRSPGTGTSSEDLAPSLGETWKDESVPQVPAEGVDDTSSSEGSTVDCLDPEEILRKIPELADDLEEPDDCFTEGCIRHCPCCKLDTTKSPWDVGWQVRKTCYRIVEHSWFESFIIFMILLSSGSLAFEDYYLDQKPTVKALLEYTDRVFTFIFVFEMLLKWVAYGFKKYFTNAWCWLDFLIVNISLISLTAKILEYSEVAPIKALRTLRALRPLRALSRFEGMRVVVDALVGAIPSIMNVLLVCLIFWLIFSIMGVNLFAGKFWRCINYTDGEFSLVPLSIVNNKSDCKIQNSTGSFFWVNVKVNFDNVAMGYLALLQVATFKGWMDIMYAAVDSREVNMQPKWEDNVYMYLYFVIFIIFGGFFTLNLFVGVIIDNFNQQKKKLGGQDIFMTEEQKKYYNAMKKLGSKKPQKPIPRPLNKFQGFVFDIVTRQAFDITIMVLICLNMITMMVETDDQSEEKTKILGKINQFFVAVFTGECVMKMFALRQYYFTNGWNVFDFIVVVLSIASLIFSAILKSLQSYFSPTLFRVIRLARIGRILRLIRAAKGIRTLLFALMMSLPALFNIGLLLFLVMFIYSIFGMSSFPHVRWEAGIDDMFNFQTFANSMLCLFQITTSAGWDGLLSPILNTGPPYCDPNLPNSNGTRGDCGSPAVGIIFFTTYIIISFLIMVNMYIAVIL

IC50 (human NaV 1.8): < 10 nM
Compound: COc1c([C@H]2[C@H](C(=O)Nc3ccnc(C(N)=O)c3)O[C@@](C)(C(F)(F)F)[C@H]2C)ccc(F)c1F (single isomer, unassigned) [Compound 1]
SPID48, in words [1]: statistically significant improvement
Mean SPID48 [2, 3]: 137.8
Mean SPID48 difference from placebo [2, 3]: 36.8
Mean SPID48 [2, 4]: 112.9
Mean SPID48 difference from placebo [2, 4]: 11.9
Mean SPID48 [2, 5]: 86.9
Mean SPID48 difference from placebo [2, 5]: −14.1
Onset of action ([2]; bunionectomy study): rapid and was sustained through the duration of assessment
SPID48 compared to placebo (primary endpoint), in words ([2]; high dose, recorded on NPRS): statistically significant improvement
